Results published in patent US20260285850A1, “SUBSTITUTED OXAZOLIDINONES AND IMIDAZOLINONES AS HERBICIDES” (FMC CORPORATION, priority 2023, published 2026).

Key:
Type in all cases: in vivo
[1] = system: corn (Zea mays); test: Test A preemergence soil spray, visual injury rating 0-100; conditions: 10 days, 0 = no effect, 100 = complete control
Summary of the method: (§1)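 Loam-sand pots got test material in surfactant-containing solvent, either as a directed soil spray before emergence or on plants at the one- to two-leaf stage. Visual injury (0-100) was read after ten greenhouse days.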

[2] = system: oat, wild (wild oat, Avena fatua); test: as above; conditions: 10 days, 0 = no effect, 100 = complete control
Summary of the method: as §1

[3] = system: ragweed (common ragweed, Ambrosia artemisiifolia); test: as above; conditions: 10 days, 0 = no effect, 100 = complete control
Summary of the method: as §1

[4] = system: green foxtail (Setaria viridis); test: as above; conditions: 10 days, 0 = no effect, 100 = complete control
Summary of the method: as §1

[5] = system: barnyardgrass (Echinochloa crus-galli); test: as above; conditions: 10 days, 0 = no effect, 100 = complete control
Summary of the method: as §1

[6] = system: soybean (Glycine max); test: as above; conditions: 10 days, 0 = no effect, 100 = complete control
Summary of the method: as §1

[7] = system: blackgrass (Alopecurus myosuroides); test: as above; conditions: 10 days, 0 = no effect, 100 = complete control
Summary of the method: as §1

[8] = system: wheat (Triticum aestivum); test: as above; conditions: 10 days, 0 = no effect, 100 = complete control
Summary of the method: as §1

[9] = system: kochia (Bassia scoparia); test: as above; conditions: 10 days, 0 = no effect, 100 = complete control
Summary of the method: as §1

[10] = system: palmer (palmer amaranth, palmer pigweed, Amaranthus palmeri); test: as above; conditions: 10 days, 0 = no effect, 100 = complete control
Summary of the method: as §1

[11] = system: ryegrass, Italian (italian ryegrass, Lolium multiflorum); test: as above; conditions: 10 days, 0 = no effect, 100 = complete control
Summary of the method: as §1

[12] = system: galium (catchweed bedstraw, Galium aparine); test: Test A postemergence application, visual injury rating 0-100; conditions: 10 days
Summary of the method: as §1

[13] = system: corn (Zea mays); test: as above; conditions: 10 days
Summary of the method: as §1

[14] = system: oat, wild (wild oat, Avena fatua); test: as above; conditions: 10 days
Summary of the method: as §1

[15] = system: ragweed (common ragweed, Ambrosia artemisiifolia); test: as above; conditions: 10 days
Summary of the method: as §1

[16] = system: green foxtail (Setaria viridis); test: as above; conditions: 10 days
Summary of the method: as §1

[17] = system: barnyardgrass (Echinochloa crus-galli); test: as above; conditions: 10 days
Summary of the method: as §1

[18] = system: horseweed (Erigeron canadensis); test: as above; conditions: 10 days
Summary of the method: as §1

[19] = system: soybean (Glycine max); test: as above; conditions: 10 days
Summary of the method: as §1

[20] = system: blackgrass (Alopecurus myosuroides); test: as above; conditions: 10 days
Summary of the method: as §1

[21] = system: wheat (Triticum aestivum); test: as above; conditions: 10 days
Summary of the method: as §1

[22] = system: kochia (Bassia scoparia); test: as above; conditions: 10 days
Summary of the method: as §1

[23] = system: palmer (palmer amaranth, palmer pigweed, Amaranthus palmeri); test: as above; conditions: 10 days
Summary of the method: as §1

[24] = system: ryegrass, Italian (italian ryegrass, Lolium multiflorum); test: as above; conditions: 10 days
Summary of the method: as §1

[25] = system: rice (Oryza sativa); test: Test B flooded paddy test, visual plant response rating 0-100; conditions: 250 g ai/ha, Flood, applied to paddy water, evaluated after 13 days
Summary of the method: (§2)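 Compounds applied to standing paddy water (3 cm above soil, maintained for the test duration) on 2-leaf-stage plants; visual rating vs controls at 13 days, greenhouse.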

[26] = system: ducksalad (Heteranthera limosa); test: as above; conditions: 250 g ai/ha, Flood, applied to paddy water, evaluated after 13 days
Summary of the method: as §2

[27] = system: barnyardgrass (Echinochloa crusgalli); test: as above; conditions: 250 g ai/ha, Flood, applied to paddy water, evaluated after 13 days
Summary of the method: as §2

[28] = system: sedge, umbrella (small-flower umbrella sedge, Cyperus difformis); test: as above; conditions: 250 g ai/ha, Flood, applied to paddy water, evaluated after 13 days
Summary of the method: as §2

[29] = 31 g ai/ha, postemergence, 0 = no effect, 100 = complete control
[30] = Postemergence, 125 g ai/ha, 0 is no effect, 100 is complete control

CC1(C(=O)NC2CC=C(C(=O)OCC(F)(F)F)C2)CN(c2cc(F)cc(F)c2)C(=O)O1 (single isomer, unassigned) [Compound 24]
Corn plant response rating (0-100) ([1]; 31 g ai/ha): 0 | Corn plant response rating (0 to 100 scale) ([1]; 125 g ai/ha): 0 | Oat, Wild plant response rating (0-100) ([2]; 31 g ai/ha): 0 | Oat, Wild plant response rating (0 to 100 scale) ([2]; 125 g ai/ha): 20 | Ragweed plant response rating (0-100) ([3]; 31 g ai/ha): 0 | Ragweed plant response rating (0 to 100 scale) ([3]; 125 g ai/ha): 10 | Foxtail, Green plant response rating (0-100) ([4]; 31 g ai/ha): 50 | Foxtail, Green plant response rating (0 to 100 scale) ([4]; 125 g ai/ha): 50 | Barnyardgrass plant response rating (0-100) ([5]; 31 g ai/ha): 10 | Barnyardgrass plant response rating (0 to 100 scale) ([5]; 125 g ai/ha): 10 | Soybean plant response rating (0-100) ([6]; 31 g ai/ha): 0 | Soybean plant response rating (0 to 100 scale) ([6]; 125 g ai/ha): 10 | Blackgrass plant response rating (0-100) ([7]; 31 g ai/ha): 0 | Blackgrass plant response rating (0 to 100 scale) ([7]; 125 g ai/ha): 0 | Wheat plant response rating (0-100) ([8]; 31 g ai/ha): 0 | Wheat plant response rating (0 to 100 scale) ([8]; 125 g ai/ha): 70 | Kochia plant response rating (0-100) ([9]; 31 g ai/ha): 0 | Kochia plant response rating (0 to 100 scale) ([9]; 125 g ai/ha): 0 | Amaranth, Palmer plant response rating (0-100) ([10]; 31 g ai/ha): 30 | Amaranth, Palmer plant response rating (0 to 100 scale) ([10]; 125 g ai/ha): 70 | Ryegrass, Italian plant response rating (0-100) ([11]; 31 g ai/ha): 0 | Ryegrass, Italian plant response rating (0 to 100 scale) ([11]; 125 g ai/ha): 0 | Galium plant response rating (0-100) [12, 29]: 40 | Galium plant response rating (0 to 100 scale) [12, 30]: 80 | Corn plant response rating (0-100) [13, 29]: 10 | Corn plant response rating (0 to 100 scale) [13, 30]: 90 | Oat, Wild plant response rating (0-100) [14, 29]: 10 | Oat, Wild plant response rating (0 to 100 scale) [14, 30]: 60 | Ragweed plant response rating (0-100) [15, 29]: 20 | Ragweed plant response rating (0 to 100 scale) [15, 30]: 30 | Foxtail, Green plant response rating (0-100) [16, 29]: 0 | Foxtail, Green plant response rating (0 to 100 scale) [16, 30]: 60 | Barnyardgrass plant response rating (0-100) [17, 29]: 20 | Barnyardgrass plant response rating (0 to 100 scale) [17, 30]: 80 | Horseweed plant response rating (0-100) [18, 29]: 20 | Horseweed plant response rating (0 to 100 scale) [18, 30]: 10 | Soybean plant response rating (0-100) [19, 29]: 0 | Soybean plant response rating (0 to 100 scale) [19, 30]: 60 | Blackgrass plant response rating (0-100) [20, 29]: 0 | Blackgrass plant response rating (0 to 100 scale) [20, 30]: 60 | Wheat plant response rating (0-100) [21, 29]: 30 | Wheat plant response rating (0 to 100 scale) [21, 30]: 90 | Kochia plant response rating (0-100) [22, 29]: 20 | Kochia plant response rating (0 to 100 scale) [22, 30]: 90 | Amaranth, Palmer plant response rating (0-100) [23, 29]: 0 | Amaranth, Palmer / Pigweed, Palmer plant response rating (0 to 100 scale) [23, 30]: 40 | Ryegrass, Italian plant response rating (0-100) [24, 29]: 40 | Ryegrass, Italian plant response rating (0 to 100 scale) [24, 30]: 60 | Plant response rating, Rice (0 to 100 scale, 0 is no effect and 100 is complete control) [25]: 0 | Plant response rating, Ducksalad (0 to 100 scale, 0 is no effect and 100 is complete control) [26]: 0 | Plant response rating, Barnyardgrass (0 to 100 scale, 0 is no effect and 100 is complete control) [27]: 0 | Plant response rating, Sedge, Umbrella (0 to 100 scale, 0 is no effect and 100 is complete control) [28]: 0
